# Results published in patent US9624233B2, “Compounds for treating pruritic conditions” (priority 2015, dated 2017).
# Assays:
# [1] = target: Norepinephrine transporter (h) (Homo sapiens, UniProt P23975); experiment: Abuse liability binding screen, Norepinephrine transporter (h) (antagonist radioligand); conditions: 2.5E−05M
# Protocol: (§1) […]. The abuse liability screen included 44 targets (receptors, transporters, on gated-channel systems) related to the dopamine, norepinephrine, serotonin, gamma-aminobutyric acid (GABA), acetylcholine, N-methyl-D-aspartate (NMDA) cannabinoid and opioid neurotransmitter systems as recommended in FDA Draft guidance on Assessment of Abuse Potential of Drugs, January 2010.
# (§2) Compound binding was calculated as a % inhibition of the binding of a radioactively labeled ligand specific for each target.
# (§3) Results showing an inhibition or stimulation higher than 50% are considered to represent significant effects of the test compounds.
# α2A (h) = target: T1, α2A (h) (Homo sapiens, UniProt P08913); experiment: Abuse liability binding screen, α2A (h) (antagonist radioligand); conditions: 2.5E−05M
# T1 sequence (P08913 1-465): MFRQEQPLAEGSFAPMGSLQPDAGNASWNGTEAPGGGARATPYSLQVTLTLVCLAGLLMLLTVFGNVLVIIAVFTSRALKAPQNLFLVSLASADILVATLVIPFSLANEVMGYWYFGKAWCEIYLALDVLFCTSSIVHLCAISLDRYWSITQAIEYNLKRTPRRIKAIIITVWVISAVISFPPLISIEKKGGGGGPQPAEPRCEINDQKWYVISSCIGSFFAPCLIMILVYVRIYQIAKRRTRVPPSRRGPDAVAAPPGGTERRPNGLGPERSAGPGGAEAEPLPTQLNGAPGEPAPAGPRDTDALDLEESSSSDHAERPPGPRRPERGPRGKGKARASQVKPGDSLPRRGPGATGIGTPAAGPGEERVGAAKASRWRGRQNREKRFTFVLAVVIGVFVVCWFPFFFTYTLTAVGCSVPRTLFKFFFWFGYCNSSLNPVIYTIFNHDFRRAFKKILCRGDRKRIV
# Protocol: as §1, §2, §3
# GABAA1 (h) (α1, β2, γ2) = GABAA1 (h) (α1, β2, γ2) (Homo sapiens, UniProt P14867+P18507+P47870); experiment: Abuse liability binding screen, GABAA1 (h) (α1, β2, γ2) (antagonist radioligand); conditions: 2.5E−05M
# Chain of GABAA1 (h) (α1, β2, γ2) (P14867 28-456): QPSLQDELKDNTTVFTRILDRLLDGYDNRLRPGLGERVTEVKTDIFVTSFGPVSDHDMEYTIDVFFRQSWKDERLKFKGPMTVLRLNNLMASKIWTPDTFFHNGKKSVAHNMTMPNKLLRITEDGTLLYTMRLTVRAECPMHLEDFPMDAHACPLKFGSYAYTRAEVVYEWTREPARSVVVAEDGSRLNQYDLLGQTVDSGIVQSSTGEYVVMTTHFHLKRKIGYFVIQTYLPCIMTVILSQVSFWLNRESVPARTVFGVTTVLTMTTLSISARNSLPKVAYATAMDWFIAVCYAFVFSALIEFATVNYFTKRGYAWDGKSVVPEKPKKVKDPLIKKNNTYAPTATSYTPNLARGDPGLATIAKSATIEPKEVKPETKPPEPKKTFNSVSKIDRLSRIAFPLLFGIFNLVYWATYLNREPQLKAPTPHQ
# Chain of GABAA1 (h) (α1, β2, γ2) (P47870 25-512 limits assumed): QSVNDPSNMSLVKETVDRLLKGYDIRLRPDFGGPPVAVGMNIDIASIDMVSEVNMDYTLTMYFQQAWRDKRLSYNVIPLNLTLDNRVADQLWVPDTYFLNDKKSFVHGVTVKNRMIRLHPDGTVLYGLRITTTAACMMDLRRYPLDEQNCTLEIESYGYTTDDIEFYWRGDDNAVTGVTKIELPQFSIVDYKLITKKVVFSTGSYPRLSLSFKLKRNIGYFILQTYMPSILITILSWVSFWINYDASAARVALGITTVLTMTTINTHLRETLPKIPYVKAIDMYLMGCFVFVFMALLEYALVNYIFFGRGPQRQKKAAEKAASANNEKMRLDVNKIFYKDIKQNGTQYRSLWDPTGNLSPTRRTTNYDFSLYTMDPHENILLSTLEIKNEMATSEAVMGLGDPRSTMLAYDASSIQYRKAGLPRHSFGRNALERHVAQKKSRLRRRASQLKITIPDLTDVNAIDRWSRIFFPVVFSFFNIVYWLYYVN
# Chain of GABAA1 (h) (α1, β2, γ2) (P18507 40-475): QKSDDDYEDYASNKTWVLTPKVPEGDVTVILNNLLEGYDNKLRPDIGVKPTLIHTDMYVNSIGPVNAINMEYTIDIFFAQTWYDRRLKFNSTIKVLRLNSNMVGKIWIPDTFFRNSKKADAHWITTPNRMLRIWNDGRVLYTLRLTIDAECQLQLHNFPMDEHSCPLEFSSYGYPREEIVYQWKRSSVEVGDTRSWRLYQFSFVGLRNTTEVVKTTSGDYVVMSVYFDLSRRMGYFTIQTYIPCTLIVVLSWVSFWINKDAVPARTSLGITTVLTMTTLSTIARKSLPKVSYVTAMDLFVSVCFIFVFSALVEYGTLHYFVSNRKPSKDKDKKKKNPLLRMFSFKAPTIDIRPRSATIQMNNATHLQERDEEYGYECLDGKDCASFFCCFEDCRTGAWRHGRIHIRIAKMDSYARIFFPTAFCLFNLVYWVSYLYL
# Protocol: as §1, §2, §3
# GR (h) = target: T2, GR (h) (Homo sapiens, UniProt P04150); experiment: Abuse liability binding screen, GR (h) (agonist radioligand); conditions: 2.5E−05M
# T2 sequence (P04150 1-777): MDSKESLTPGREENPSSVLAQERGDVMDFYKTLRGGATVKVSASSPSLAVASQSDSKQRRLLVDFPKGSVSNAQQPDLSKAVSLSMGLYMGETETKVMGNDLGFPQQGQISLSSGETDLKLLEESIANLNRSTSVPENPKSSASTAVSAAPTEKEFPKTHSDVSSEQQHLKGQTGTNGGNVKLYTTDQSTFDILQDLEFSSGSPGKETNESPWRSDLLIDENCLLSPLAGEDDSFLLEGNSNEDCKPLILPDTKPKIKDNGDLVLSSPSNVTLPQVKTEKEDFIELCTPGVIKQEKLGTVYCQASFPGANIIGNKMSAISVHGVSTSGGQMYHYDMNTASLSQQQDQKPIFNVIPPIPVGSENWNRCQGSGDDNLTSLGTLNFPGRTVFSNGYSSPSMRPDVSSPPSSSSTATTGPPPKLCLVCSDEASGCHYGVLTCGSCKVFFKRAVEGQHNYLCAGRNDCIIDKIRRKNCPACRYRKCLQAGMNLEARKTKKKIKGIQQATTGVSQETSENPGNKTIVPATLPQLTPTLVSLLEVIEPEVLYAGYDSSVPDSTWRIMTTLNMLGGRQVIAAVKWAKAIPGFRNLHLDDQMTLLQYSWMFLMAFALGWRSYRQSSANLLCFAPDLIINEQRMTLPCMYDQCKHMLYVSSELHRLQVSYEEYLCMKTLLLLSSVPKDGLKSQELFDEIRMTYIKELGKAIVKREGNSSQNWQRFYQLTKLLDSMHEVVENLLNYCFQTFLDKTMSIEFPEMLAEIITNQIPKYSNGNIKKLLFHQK
# Protocol: as §1, §2, §3
# M5 (h) = target: T3, M5 (h) (Homo sapiens, UniProt P08912); experiment: Abuse liability binding screen, M5 (h) receptor (antagonist radioligand); conditions: 2.5E−05M
# T3 sequence (P08912 1-532): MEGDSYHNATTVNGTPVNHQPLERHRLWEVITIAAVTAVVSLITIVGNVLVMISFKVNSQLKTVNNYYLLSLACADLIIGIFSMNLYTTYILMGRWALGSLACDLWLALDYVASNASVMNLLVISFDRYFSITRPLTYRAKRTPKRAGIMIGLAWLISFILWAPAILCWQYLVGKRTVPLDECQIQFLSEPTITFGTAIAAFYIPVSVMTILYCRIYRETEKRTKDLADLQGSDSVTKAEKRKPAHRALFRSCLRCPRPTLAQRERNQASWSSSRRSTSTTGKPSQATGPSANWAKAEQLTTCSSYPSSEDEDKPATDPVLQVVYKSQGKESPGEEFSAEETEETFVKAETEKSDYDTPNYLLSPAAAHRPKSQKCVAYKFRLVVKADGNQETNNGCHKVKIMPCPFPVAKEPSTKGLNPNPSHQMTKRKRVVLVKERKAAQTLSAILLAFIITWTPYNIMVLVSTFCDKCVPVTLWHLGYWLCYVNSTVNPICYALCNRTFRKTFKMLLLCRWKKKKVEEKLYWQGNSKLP
# Protocol: as §1, §2, §3
# [2] = Plasma Cmax in HD patients; conditions: read-out: Cmax in HD patients, HD patients
# N neuronal α4β2 (h) = N neuronal α4β2 (h) (Homo sapiens, UniProt P17787+P43681); experiment: Abuse liability binding screen, N neuronal α4β2 (h) (agonist radioligand); conditions: 2.5E−05M
# Chain of N neuronal α4β2 (h) (P43681 29-627 limits assumed): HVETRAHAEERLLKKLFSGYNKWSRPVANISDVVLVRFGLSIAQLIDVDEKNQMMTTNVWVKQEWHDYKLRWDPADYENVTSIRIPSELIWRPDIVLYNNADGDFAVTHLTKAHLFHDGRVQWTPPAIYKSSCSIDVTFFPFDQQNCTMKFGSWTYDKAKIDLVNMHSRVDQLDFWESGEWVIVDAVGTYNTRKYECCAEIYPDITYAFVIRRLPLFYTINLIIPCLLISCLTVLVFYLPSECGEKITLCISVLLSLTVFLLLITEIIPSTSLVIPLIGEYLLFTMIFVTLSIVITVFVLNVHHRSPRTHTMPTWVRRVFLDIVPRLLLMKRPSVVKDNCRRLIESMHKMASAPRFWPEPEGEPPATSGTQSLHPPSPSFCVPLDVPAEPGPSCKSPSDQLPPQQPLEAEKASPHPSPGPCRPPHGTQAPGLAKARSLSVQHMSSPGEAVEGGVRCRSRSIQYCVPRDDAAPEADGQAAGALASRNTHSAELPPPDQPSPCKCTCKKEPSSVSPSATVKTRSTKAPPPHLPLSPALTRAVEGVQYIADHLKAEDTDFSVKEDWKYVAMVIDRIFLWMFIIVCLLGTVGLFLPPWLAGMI
# Chain of N neuronal α4β2 (h) (P17787 26-502): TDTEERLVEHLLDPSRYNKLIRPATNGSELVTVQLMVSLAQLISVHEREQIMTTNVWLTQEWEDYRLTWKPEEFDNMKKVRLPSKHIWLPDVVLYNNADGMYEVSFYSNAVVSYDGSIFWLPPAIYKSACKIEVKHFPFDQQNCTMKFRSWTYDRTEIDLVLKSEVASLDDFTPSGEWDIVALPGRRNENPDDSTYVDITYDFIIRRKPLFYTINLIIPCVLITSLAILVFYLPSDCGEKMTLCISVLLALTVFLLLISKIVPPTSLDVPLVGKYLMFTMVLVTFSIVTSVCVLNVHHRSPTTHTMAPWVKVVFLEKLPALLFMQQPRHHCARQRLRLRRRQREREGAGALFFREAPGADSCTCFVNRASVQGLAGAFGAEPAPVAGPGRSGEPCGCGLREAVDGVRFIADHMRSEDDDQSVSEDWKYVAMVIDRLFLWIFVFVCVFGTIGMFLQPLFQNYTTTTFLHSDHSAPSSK
# Protocol: as §2
# CB2 (h) = CB2 (h) (Homo sapiens, UniProt P34972); experiment: Abuse liability binding screen, CB2 (h) (agonist radioligand); conditions: 2.5E−05M
# Chain of CB2 (h) (P34972 whole entry): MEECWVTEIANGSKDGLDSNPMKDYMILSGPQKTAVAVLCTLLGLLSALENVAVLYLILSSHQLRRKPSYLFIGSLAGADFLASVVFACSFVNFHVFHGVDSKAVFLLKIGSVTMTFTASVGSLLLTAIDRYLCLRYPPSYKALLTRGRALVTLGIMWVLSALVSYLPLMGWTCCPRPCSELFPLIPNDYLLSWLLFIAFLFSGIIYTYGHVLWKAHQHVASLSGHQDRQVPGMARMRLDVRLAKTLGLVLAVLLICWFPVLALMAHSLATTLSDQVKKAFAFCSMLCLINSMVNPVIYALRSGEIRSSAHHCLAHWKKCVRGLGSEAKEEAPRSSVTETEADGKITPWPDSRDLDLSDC
# Protocol: as §1, §2, §3
# 5-HT2B (h) = 5-HT2B (h) (Homo sapiens, UniProt P41595); experiment: Abuse liability binding screen, 5-HT2B (h) (agonist radioligand); conditions: 2.5E−05M
# Chain of 5-HT2B (h) (P41595 whole entry): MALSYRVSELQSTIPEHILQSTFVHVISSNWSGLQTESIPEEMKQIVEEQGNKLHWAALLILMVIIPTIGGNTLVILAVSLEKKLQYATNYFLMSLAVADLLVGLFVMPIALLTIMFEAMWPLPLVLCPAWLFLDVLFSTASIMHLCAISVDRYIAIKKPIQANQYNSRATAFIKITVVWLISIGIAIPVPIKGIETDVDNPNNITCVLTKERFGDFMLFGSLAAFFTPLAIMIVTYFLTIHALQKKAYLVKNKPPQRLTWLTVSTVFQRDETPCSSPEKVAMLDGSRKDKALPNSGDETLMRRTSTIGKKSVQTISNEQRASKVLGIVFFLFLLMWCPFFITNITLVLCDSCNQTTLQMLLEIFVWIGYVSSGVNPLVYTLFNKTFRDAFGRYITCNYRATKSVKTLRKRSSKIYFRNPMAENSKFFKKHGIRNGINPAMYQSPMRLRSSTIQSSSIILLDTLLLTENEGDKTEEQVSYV
# Protocol: as §1, §2, §3
# Chain of Norepinephrine transporter (h) (P23975 whole entry): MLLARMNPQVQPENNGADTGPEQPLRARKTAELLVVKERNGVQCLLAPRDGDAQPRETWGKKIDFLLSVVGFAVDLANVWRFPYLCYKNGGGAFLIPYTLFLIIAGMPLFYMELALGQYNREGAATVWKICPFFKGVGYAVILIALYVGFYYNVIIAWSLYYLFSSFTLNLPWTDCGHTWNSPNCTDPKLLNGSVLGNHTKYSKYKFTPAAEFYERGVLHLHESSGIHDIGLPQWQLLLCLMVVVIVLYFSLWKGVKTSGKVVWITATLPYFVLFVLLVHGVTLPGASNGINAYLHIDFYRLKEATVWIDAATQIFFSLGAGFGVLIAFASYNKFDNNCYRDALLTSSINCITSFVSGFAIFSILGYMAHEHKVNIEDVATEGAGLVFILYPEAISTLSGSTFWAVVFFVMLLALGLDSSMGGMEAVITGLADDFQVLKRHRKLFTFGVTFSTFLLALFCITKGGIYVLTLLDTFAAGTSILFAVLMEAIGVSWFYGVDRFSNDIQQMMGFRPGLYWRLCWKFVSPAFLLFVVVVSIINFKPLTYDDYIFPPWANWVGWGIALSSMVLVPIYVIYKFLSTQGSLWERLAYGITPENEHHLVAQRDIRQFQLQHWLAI
structure (smiles),measurement,setting,value
"O=C(O)[C@H]1O[C@@H](Oc2ccc3c4c2O[C@H]2[C@@H](O)CC[C@@]5(O)[C@@H](C3)N(CC3CCC3)CC[C@]425)[C@H](O)[C@@H](O)[C@@H]1O [Compound M5, nalbuphine-3-beta-D-glucuronid]",% Inhibition of Control Specific Binding 1st,[1],−11.4%
same,% Inhibition of Control Specific Binding 2nd,[1],3.2%
same,% Inhibition of Control Specific Binding Mean,[1],−4.1%
same,% Inhibition of Control Specific Binding 1st,α2A (h),−0.5%
same,% Inhibition of Control Specific Binding 2nd,α2A (h),−5.7%
same,% Inhibition of Control Specific Binding Mean,α2A (h),−3.1%
same,% Inhibition of Control Specific Binding 1st,"GABAA1 (h) (α1, β2, γ2)",−1.4%
same,% Inhibition of Control Specific Binding 2nd,"GABAA1 (h) (α1, β2, γ2)",−0.8%
same,% Inhibition of Control Specific Binding Mean,"GABAA1 (h) (α1, β2, γ2)",−1.1%
same,% Inhibition of Control Specific Binding 1st,GR (h),0.8%
same,% Inhibition of Control Specific Binding 2nd,GR (h),−5.4%
same,% Inhibition of Control Specific Binding Mean,GR (h),−2.3%
same,% Inhibition of Control Specific Binding 1st,M5 (h),9.9%
same,% Inhibition of Control Specific Binding 2nd,M5 (h),0.7%
same,% Inhibition of Control Specific Binding Mean,M5 (h),5.3%
same,Cmax,[2],10.4 µM
same,% Inhibition of Control Specific Binding 1st,N neuronal α4β2 (h),0.8%
same,% Inhibition of Control Specific Binding 2nd,N neuronal α4β2 (h),−2.0%
same,% Inhibition of Control Specific Binding Mean,N neuronal α4β2 (h),−0.6%
same,% Inhibition of Control Specific Binding 1st,CB2 (h),−13.1%
same,% Inhibition of Control Specific Binding 2nd,CB2 (h),−23.1%
same,% Inhibition of Control Specific Binding Mean,CB2 (h),−18.1%
same,% Inhibition of Control Specific Binding 1st,5-HT2B (h),−3.4%
same,% Inhibition of Control Specific Binding 2nd,5-HT2B (h),3.9%
same,% Inhibition of Control Specific Binding Mean,5-HT2B (h),0.2%
